The text below walks through data of publication PMC4052314, “New Cyclic Cystine Bridged Peptides from the Sponge Suberites waedoensis” (Marine Drugs, 2014).

For series [1], the system named is A549 cell-line. Description: Cytotoxicity assay, A549 cell line. The class given is cell-based. The following applies: literature protocols [21],[22]. The procedure: (§1) The cytotoxicity assays were performed in accord with literature protocols. The Na^+/K^+-ATPase inhibition assay was performed according to the previously described method.
The test system of series [2] is K562 cell-line. As to the kind of experiment: Cytotoxicity assay, K562 cell line. The class given is cell-based. The conditions noted are these: literature protocols [21],[22]. How it is done: as §1
The target in series [3] is Na+/K+-ATPase. As to the kind of experiment: Na+/K+-ATPase inhibition assay. The class given is biochemical. The following applies: previously described method [23]. The procedure: as §1
For series [4], the system named is K562 cell-line. The conditions noted are these: cited from earlier work. The text has this: (§2) In our search for bioactive metabolites from sponges found in Korean waters, we recently reported the structural determination of gombamide A, a cyclic thiohexapeptide from Clathria gombawuiensis. […] In our continuing search for bioactive metabolites in sponges, we report here the isolation and structural determinations of chujamides A (1) and B (2), new cyclic cystine bridged peptides from the sponge Suberites waedoensis (Figure 1). These proline- ...

For series [5], the system named is A549 cell-line. The conditions noted are these: cited from earlier work.
From the text: as §2

Series [6] concerns Na+/K+-ATPase. The following applies: cited from earlier work.
From the text: as §2

pIC50: −log10 of the molar value. Positions of bridges follow the written chain, without caps; N, C: chain ends. Residues, ends and D or L forms follow the SMILES beside them.

In the case of `CC[C@H](C)[C@H](N)C(=O)N[C@H]1CSSC[C@@H](C(=O)O)NC(=O)[C@H]([C@@H](C)CC)NC(=O)[C@@H]2CCCN2C(=O)[C@H](CC(C)C)NC(=O)[C@H](Cc2ccccc2)NC(=O)[C@@H]2CCCN2C(=O)[C@@H]2CCCN2C(=O)[C@H](Cc2ccc(O)cc2)NC(=O)[C@@H]2CCCN2C1=O` [Compound 2, chujamide B] (H-ICPYPPFLPIC-OH; disulfide 2-11), the “LC50, cytotoxicity toward A549” value in series [1] is recorded as 26.4 µM. The “LC50, cytotoxicity toward K562” value in series [2] is on record as 55.6 µM. Also, the pIC50 – broadly, the IC50 on a negative log10 scale, so that one unit is a factor of ten – in series [3] was 4.76.
On to `CC[C@H](C)[C@H](NC(=O)CN)C(=O)N[C@H]1CSSC[C@@H](C(=O)O)NC(=O)[C@H]([C@@H](C)CC)NC(=O)[C@@H]2CCCN2C(=O)[C@H](CC(C)C)NC(=O)[C@H](Cc2ccccc2)NC(=O)[C@@H]2CCCN2C(=O)[C@@H]2CCCN2C(=O)[C@H](Cc2ccc(O)cc2)NC(=O)[C@@H]2CCCN2C1=O` [Compound 1, chujamide A] (H-GICPYPPFLPIC-OH; disulfide 3-12), for which the “LC50, cytotoxicity toward A549” value in series [1] turned out to be 10.1 µM. In addition, in series [2], the “LC50, cytotoxicity toward K562” value was 37.0 µM.
On to `COc1cccc2c1C(=O)c1c(O)c3c(c(O)c1C2=O)C[C@@](O)(C(=O)CO)C[C@@H]3O[C@H]1C[C@H](N)[C@H](O)[C@H](C)O1` [doxorubicin], for which, in series [1], the “LC50, cytotoxicity toward A549” value is listed as 1.3 µM. Also, the “LC50, cytotoxicity toward K562” value in series [2] is reported as 1.5 µM.
gombamide A: in series [4], the “cytotoxicity against K562 (in words)” value is “exhibited cytotoxicity”. Also, the “cytotoxicity against A549 (in words)” value in series [5] is on record as “exhibited cytotoxicity”. The “inhibitory activity against Na+/K+-ATPase (in words)” value in series [6] is reported as “inhibitory activity”.
